From US10155948B2, “Pharmaceutical composition for preventing or treating diabetic complications and screening method for preventive or therapeutic agent for diabetic complications” (KANGWON NATIONAL UNIVERSITY UNIVERSITY-INDUSTRY COOPERATION …, priority 2016, dated 2018)

Molecular target: T1, TGase2 (Mus musculus, UniProt P21981)
T1 construct: from tissue; host or cells: retina of streptozotocin-diabetic C57BL/6 mice
T1 sequence (P21981 1-686): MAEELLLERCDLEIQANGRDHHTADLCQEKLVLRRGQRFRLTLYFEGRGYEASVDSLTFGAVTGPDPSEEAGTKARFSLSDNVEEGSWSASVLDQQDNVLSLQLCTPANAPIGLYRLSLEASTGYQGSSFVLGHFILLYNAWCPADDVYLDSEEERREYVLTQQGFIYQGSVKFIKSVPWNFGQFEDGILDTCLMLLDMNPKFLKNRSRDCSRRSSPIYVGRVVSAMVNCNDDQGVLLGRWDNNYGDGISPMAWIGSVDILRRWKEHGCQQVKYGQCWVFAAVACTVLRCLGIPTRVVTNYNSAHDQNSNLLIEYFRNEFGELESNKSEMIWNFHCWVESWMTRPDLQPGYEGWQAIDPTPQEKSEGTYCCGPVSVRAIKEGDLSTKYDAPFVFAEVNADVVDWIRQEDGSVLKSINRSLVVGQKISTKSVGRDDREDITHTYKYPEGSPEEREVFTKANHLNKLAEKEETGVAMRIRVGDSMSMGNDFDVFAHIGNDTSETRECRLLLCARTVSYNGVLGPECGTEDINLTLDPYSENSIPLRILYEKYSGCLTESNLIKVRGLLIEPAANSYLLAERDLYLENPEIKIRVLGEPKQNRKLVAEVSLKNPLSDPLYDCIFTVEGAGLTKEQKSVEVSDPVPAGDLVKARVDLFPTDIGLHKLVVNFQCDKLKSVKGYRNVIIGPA
Assay: In-vivo TGase activity in retina of streptozotocin-diabetic mice
Conditions: for increase of TGase activity in retinas of diabetic mice: intravitreal injection, 0.5 mM dopamine, 500 mM cysteamine; for hyperglycemia-induced TGase2 activation in diabetic retina (in-vivo TGase activity): diabetic mice, intravitreal 2 μl: 50 mM cystamine, 20 mM MDC, 1 μM C-peptide, 2 μM Trolox, 500 mM NAC, after 24 hrs, n=8
Procedure: Two weeks after streptozotocin injection, diabetic mice were intravitreally injected with 2 μl of TGase inhibitors (50 mM cystamine or 20 mM MDC), 1 μM C-peptide (American Peptide Company, Sunnyvale, Calif.), ROS scavengers (2 μM Trolox or 500 mM NAC), or 65 μM mouse TG2-specific siRNA (Dharmacon, Lafayette, Colo.) into one eye and an equal volume of PBS or mouse control siRNA (Dharmacon, Lafayette, Colo.) into the contralateral eye. Non-diabetic mice were also intravitreally injected with 2 μl of PBS or mouse control siRNA into the eyes. After 24 hrs for inhibitors or C-peptide or 48 hrs for mouse TGase2 siRNA, mice were subjected to measurement of in-vivo TGase activity and vascular leakage from the retina.
In vivo Tgase transamidating activity was determined in mouse retina using confocal microscopy (FIG. 5A). 24 hrs after intravitreal injection of TGase2 inhibitors and C-peptide or 48 h after the injection of mouse TGase2-specific siRNA, mice were deeply anaesthetized using 2.5% avertin and 48 μl of 100 mM BAPA was injected into the left ventricle. BAPA was allowed to circulate for 10 min and mice were sacrificed by cervical dislocation. Eyes were then enucleated and immediately fixed with 4% paraformaldehyde for 45 min. Retinas were dissected in the Maltese cross-configuration and permeabilized with 0.2% Triton X-100 in PBS for 30 min at RT. After incubation with the blocking solution for 30 min, retinas were treated with FITC-conjugated streptavidin (1:200, v/v) in the blocking solution for 1 hr at RT. The superficial vessels of stained retinas (n=8 per group) were observed using confocal microscopy and fluorescence intensities were analyzed using Fluoview software (FV-300). In-vivo TGase activities were quantitatively determined using fluorescence intensities in the retinas of normal and diabetic mice.
Six-week-old male C57BL/6 mice were obtained from KOATECH (Pyeongtaek, Korea). TGase2^−/− mice (C57BL/6) were prepared by disrupting exons 5 and 6 of TGase2 by homologous recombination, as previously described. Diabetic mice were generated by a single intraperitoneal injection of streptozotocin (150 mg/kg body weight, Sigma) freshly prepared in 100 mM citrate buffer (pH 4.5) as previously described. Mice with non-fasting blood glucose levels greater than 19 mM, polyuria and glucosuria were considered diabetic. Experiments were performed in strict accordance with the guidelines of the Institutional Animal Care and Use Ethics Committee of Kangwon National University.
To validate the in-vitro findings, the present inventors further investigated the role of TGase2 in hyperglycemia-induced vascular leakage in the retina of diabetic mice. For this study, the present inventors designed an in-vivo TGase activity assay using confocal microscopy in mouse retina (FIG. 5A). In this assay, BAPA, which is a TGase2 pseudo substrate, was systemically delivered into the blood circulatory system by injection into the left ventricles of mice, and biotinylated proteins in the retinas were probed with FITC-conjugated streptavidin.
(A) A schematic diagram for determining TGase2 activity in mouse retina. (B,C) Streptozotocin-induced diabetic mice were intravitreally injected with 2 μl cystamine (diabetic+Cys), MDC (diabetic+MDC), C-peptide (diabetic+C-pep), Trolox (diabetic+Trolox) or NAC (diabetic+NAC) into one eye and an equal volume of PBS into the contralateral eye (diabetic). Non-diabetic mice were also intravitreally injected with 2 μl PBS into both eyes (normal). TGase2 activities in retinas were visualized by confocal microscopy and quantitatively determined as described in Research Design and Methods (n=8 per group). (B) Representative TGase activity images in the retinas. […] Scale bar, […]. (C) In-vivo TGase activities were quantified by measuring the fluorescence intensity in retinas (***p<0.001). […]

increase of TGase activity in retinas of diabetic mice	hyperglycemia-induced TGase2 activation in diabetic retina (in-vivo TGase activity)	SMILES
inhibited	–	NCCS [cysteamine]
–	prevented	Cc1c(C)c2c(c(C)c1O)CCC(C)(C(=O)O)O2 (centres unmarked) [Trolox]
–	suppressed	CN(C)c1cccc2c(S(=O)(=O)NCCCCCN)cccc12 [MDC, monodansylcadaverine]
–	suppressed	NCCSSCCN [cystamine]
inhibited	–	NCCc1ccc(O)c(O)c1 [dopamine]
